Data taken from US9169231B2, “Anti-obesity agent comprising compound containing benzotropolone ring” (SUNTORY HOLDINGS LIMITED, priority 2009, dated 2015).
pIC50: −log10 of the molar value. Where two headings read alike, the source gives them in different places.

Experiments:
Assay type in all cases: biochemical
[1] = target: T1, porcine pancreatic lipase (Sus scrofa, UniProt P00591); test: Measurement of lipase inhibitory activity (Example 6; 4-MUO substrate, fluorescence)
T1 construct: purchased Sigma-Aldrich Corp
T1 sequence (P00591 1-450): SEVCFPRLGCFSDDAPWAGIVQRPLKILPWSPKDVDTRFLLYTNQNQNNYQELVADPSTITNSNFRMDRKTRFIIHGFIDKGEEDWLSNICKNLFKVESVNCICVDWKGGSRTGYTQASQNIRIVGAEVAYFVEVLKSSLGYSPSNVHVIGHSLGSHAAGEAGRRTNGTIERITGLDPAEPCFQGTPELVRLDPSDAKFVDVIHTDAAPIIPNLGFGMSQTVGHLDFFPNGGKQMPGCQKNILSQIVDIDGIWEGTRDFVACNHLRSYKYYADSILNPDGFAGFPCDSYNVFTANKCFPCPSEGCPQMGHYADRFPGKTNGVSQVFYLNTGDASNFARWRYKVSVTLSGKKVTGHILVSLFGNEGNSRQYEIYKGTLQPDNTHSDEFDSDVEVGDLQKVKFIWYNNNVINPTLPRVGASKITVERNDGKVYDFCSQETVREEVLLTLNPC
Method: The measurement of lipase activity was performed by using as a substrate the oleate ester of fluorescent 4-methylumbelliferone (4-MUO; Sigma-Aldrich Corp.) to measure the fluorescence of 4-methylumbelliferone produced by a reaction. […] The following were subjected to an enzymatic measurement: the substrate 4-MUO which was dissolved into a 0.1M DMSO solution followed by dilution of the solution 4000-fold with the above buffer; and as a lipase, porcine pancreatic lipase (Sigma-Aldrich Corp.) which was prepared as a 400 U/ml solution by using the above buffer likewise.
(§1) An enzymatic reaction was initiated by the following steps under 25° C. condition: adding to a 96-well microplate 50 μl of a 4-MUO buffer solution and 25 μl of distilled water (or an aqueous sample solution) for each well; mixing them; and then adding 25 μl of a lipase buffer solution to each well. After a 30-minute reaction, 100 μl of a 0.1M citric acid buffer (pH4.2) was added to terminate the reaction, and the fluorescence of 4-methylumbelliferone (excitation wavelength: 355 nm, fluorescence wavelength: 460 nm) produced by the reaction was measured with a fluorescence plate reader (Fluoroskan Asent CF from Labsystems, Inc.)

alfa-glucosidase = test: Measurement of alfa-glucosidase inhibitory activity (Example 11; p-nitrophenyl-alfa-D-glucopyranoside, A405)
Method: A […] sodium phosphate buffer was prepared by mixing a 0.1M NaH2PO4-2H2O and a 0.1M Na2HPO4.12H2O and adjusting the mixture to pH7.0, and thereto 2 g/L of bovine serum albumin (Nacalai Tesque, Inc., F-V, pH5.2, 96% purity) and 0.2 g/L of NaN3 (Nacalai Tesque, Inc., a special grade reagent) were added. To prepare an enzyme solution, alfa-glucosidase (Wako Pure Chemical Industries, Ltd., yeast-derived, 100 units/mg) was dissolved in the above buffer so as to achieve 0.5 units/mg protein/ml (100 μg/20 ml). To prepare a substrate solution, p-nitrophenyl-alfa-D-glucopyranoside (Nacalai Tesque, Inc., a special grade reagent) was dissolved in the above buffer so as to achieve 5 mM concentration (7.525 mg/5 ml).
Among the samples used for the assays, epigallocatechin-3-O-gallate (Compound 13: EGCG), a positive control, was a product from Wako Pure Chemical Industries, Ltd., and Compounds 1, 3, 4, 5, 11, 12, 14, and 15 were products that were synthesized and purified in Example 1, 2, or 7.
These samples were adjusted so as to obtain 10 mg/ml of DMSO and the solution was diluted 2-fold in 6 steps. Using a 96-well microplate, 45 μL of the enzyme solution was added to 10 μL of the sample solution. After preincubation at 37° C. for 5 minutes, 45 μL of the substrate solution was added and absorbance at 405 nm (A405 nm) was measured. After incubation at 37° C. for 5 minutes, the absorbance A405 nm was measured. Percent inhibition was calculated as a difference in A405 nm from a solution in which only DMSO was added as a control instead of a sample, and two consecutive measurements were performed for activity of each compound.

[2] = target: T2, porcine pancreatic lipase (Type VI-S) (Sus scrofa, UniProt P00591); test: Measurement of lipase activity (Example 10; 4-MUO substrate 7.5 μM, increased DMSO); conditions: Example 10 method; for pIC50: substrate 7.5 μM, 25° C., 30-minute reaction, read-out: Lipase Inhibitory Activity per Mole IC50
T2 construct: purchased Sigma-Aldrich Corp. Type VI-S
T2 sequence (P00591 1-450): T1 sequence (P00591 1-450)
Method: The measurement of lipase activity was performed by using as a substrate the oleate ester of fluorescent 4-methylumbelliferone (4-MUO; Sigma-Aldrich Corp.) to measure the fluorescence of 4-methylumbelliferone produced by a reaction. In the measurement, 13 mM Tris-HCl (pH8.0) containing 150 mM NaCl and 1.36 mM CaCl2 was used as a buffer. The following were subjected to an enzymatic measurement: the substrate 4-MUO which was dissolved into a 0.01M DMSO solution followed by dilution of the solution 667-fold with the above buffer; and as a lipase, porcine pancreatic lipase (Sigma-Aldrich Corp.: Type VI-S) which was prepared as a 400 U/ml solution by using the above buffer likewise.
as §1, with “μl of 4-MUO buffer” for “μl of a 4-MUO buffer”, “water (or aqueous sample” for “water (or an aqueous sample”, “each well. […] After a” for “each well. After a”, “μl of 0.1M citric” for “μl of a 0.1M citric”, “from Labsystems, Inc.).” for “from Labsystems, Inc.)”
The inhibitory activities of test samples were determined as IC50 (μM), a sample […] which produces 50% inhibition, relative to the activity of a control (distilled water).

[3] = Example 6 method, substrate 12.5 μM, 25° C., 30-minute reaction, read-out: Lipase Inhibitory Activity per mole IC50

Row | Compound | pIC50 [1, 3] | pIC50 (alfa-glucosidase; 37° C., 5 minutes incubation) | pIC50 [2] | also measured
1 | O=C(O[C@@H]1Cc2c(O)cc(O)cc2O[C@@H]1c1cc(O)c(=O)c2c(O)c(O)cc([C@@H]3Oc4cc(O)cc(O)c4C[C@@H]3O)c2c1)c1cc(O)c(=O)c2c(O)c(O)cc([C@H]3Oc4cc(O)cc(O)c4C[C@H]3O)c2c1 (stereo in doubt) [Compound 6, theadibenzotropolone A] | 6.75 |  |  | 
2 | O=C(O[C@@H]1Cc2c(O)cc(O)cc2O[C@@H]1c1cc(O)c(=O)c2c(O)c(O)cc([C@@H]3Oc4cc(O)cc(O)c4C[C@H]3OC(=O)c3cc(O)c(O)c(O)c3)c2c1)c1cc(O)c(=O)c2c(O)c(O)cc([C@H]3Oc4cc(O)cc(O)c4C[C@H]3OC(=O)c3cc(O)c(O)c(O)c3)c2c1 (stereo in doubt) [Compound 7, theaflavin digallate trimer 1 (TFdiGA-tri1)] | 6.87 |  |  | 
3 | O=C(O[C@@H]1Cc2c(O)cc(O)cc2O[C@@H]1c1cc(O)c(=O)c2c(O)c(O)cc([C@@H]3Oc4cc(O)cc(O)c4C[C@H]3OC(=O)c3cc(O)c(=O)c4c(O)c(O)cc([C@H]5Oc6cc(O)cc(O)c6C[C@H]5OC(=O)c5cc(O)c(O)c(O)c5)c4c3)c2c1)c1cc(O)c(O)c(O)c1 (stereo in doubt) [Compound 8, theaflavin digallate trimer 2 (TFdiGA-tri2)] | 6.86 |  |  | 
4 | O=c1c(O)cccc2cc(O)c(O)c(O)c12 [Compound 1, purprogallin] | 6.38 | 2.91 |  | 
5 | O=C(O)c1cc(O)c(=O)c2c(O)c(O)c(O)cc2c1 [Compound 2, purprogallin carboxylic acid] |  |  |  | pIC50 [1]: 5.38
6 | O=C(O[C@@H]1Cc2c(O)cc(O)cc2O[C@@H]1c1cc(=O)c(O)c2c(O)c(O)c(O)cc2c1)c1cc(O)c(O)c(O)c1 [Compound 4, epitheaflagallin-3-O-gallate, reference compound] |  | 3.74 | 6.90 | 
7 | O=C(O[C@@H]1Cc2c(O)cc(O)cc2O[C@@H]1c1ccc(O)c(O)c1)c1cc(O)c(=O)c2c(O)c(O)cc([C@H]3Oc4cc(O)cc(O)c4C[C@H]3OC(=O)c3cc(O)c(O)c(O)c3)c2c1 [Compound 5, theaflavate A] | 6.69 | 3.94 |  | 
8 | O=C(O)c1cc(O)c(=O)c2c(O)c(O)cc([C@H]3Oc4cc(O)cc(O)c4C[C@H]3O)c2c1 [Compound 9, epitheaflavic acid] | 5.33 |  |  | 
9 | O=c1c(O)cccc2c([C@H]3Oc4cc(O)cc(O)c4C[C@H]3O)cc(O)c(O)c12 [Compound 10, theaflavanin] | 6.01 |  |  | 
10 | O=C(O)c1cc(O)c(=O)c2c(O)c(O)cc([C@H]3Oc4cc(O)cc(O)c4C[C@H]3OC(=O)c3cc(O)c(O)c(O)c3)c2c1 [Compound 11, epitheaflavic acid-3-O-gallate] | 6.58 | 3.54 |  | 
11 | O=C(O[C@@H]1Cc2c(O)cc(O)cc2O[C@@H]1c1ccc(O)c(O)c1)c1cc(O)c(=O)c2c(O)c(O)c(O)cc2c1 [Compound 12, (2R,3R)-2-(3,4-dihydroxyphenyl)-5,7-dihydroxychroman-3-yl2,3,4,6-tetrahydroxy-5-oxo-5H-benzo[7]annulen-8-carboxylate] | 6.68 | 3.80 | 7.02 | alfa-glucosidase inhibitory activity (in words) (alfa-glucosidase): particularly strong activity; Lipase inhibitory activity (in words, compared with EGCG) [2]: stronger activity than a positive control, EGCG
12 | O=C(O[C@@H]1Cc2c(O)cc(O)cc2O[C@@H]1c1cc(O)c(O)c2c(=O)c(O)cccc12)c1cc(O)c(O)c(O)c1 [Compound 14, theaflavanin 3-O-gallate] |  | 3.71 | 6.77 | alfa-glucosidase inhibitory activity (in words) (alfa-glucosidase): particularly strong activity; Lipase inhibitory activity (in words, compared with EGCG) [2]: stronger activity than a positive control, EGCG
13 | O=C(O[C@@H]1Cc2c(O)cc(O)cc2O[C@@H]1c1cc(O)c(=O)c2c(O)c(O)ccc2c1)c1cc(O)c(O)c(O)c1 [Compound 15, EGCG-catechol] |  | 3.99 | 6.98 | Lipase inhibitory activity (in words, compared with EGCG) [2]: stronger activity than a positive control, EGCG
14 | Oc1cccc(O)c1O [pyrogallol, reference compound] | 4.76 |  |  | 
15 | (−)-epigallocatechin-3-O-gallate [Compound 13, reference compound] | 6.46 | 3.31 | 6.46 | 
16 | epitheaflagallin [Compound 3, reference compound] |  |  | 6.02 | alfa-glucosidase inhibitory activity IC50 (alfa-glucosidase; 37° C., 5 minutes incubation): No
